Entries after “also recorded” stand apart in the source; their conditions may differ.
Experiment: In vivo pharmacokinetics of Compound B in SCID mice
Text: Blood samples were collected from the saphenous vein of mice at various time points after IP injection of the compound into the mice and then analyzed using HPLC-Mass Spectrometry.

For `Nc1cc(Br)c(Br)cc1N` [Compound B, 4,5-dibromo-1,2-phenylenediamine], which “detection of compound in blood/plasma” value (after IP injection) is on record?
The value was “significant levels; also recorded: detected in the plasma”.

What about the “elimination from the body” value (after IP injection) of the same compound?
The value was “well expelled from the body within a few hours”.

And the “time of highest concentration after i.p. injection” value (plasma/blood, IP 0-7 mg/kg, HPLC-Mass Spectrometry)?
Its value is “about 20 minutes”.

And the “time at which concentration dropped to nearly zero” value (plasma/blood, after i.p. injection)?
The value was “about 3 hr”.
